Data on one sequence can be found in publication PMC8708875 (Pharmaceutics, 2021).

Assay [1] concerns Erk and Akt phosphorylation in epididymal adipose and tibial muscle tissues. Kind of assay: Erk and Akt phosphorylation in tissues after ip administration to WT mice. Format: in vivo, mouse. As to conditions: 600 µg/kg ip, tissues collected 30 min after administration. On the procedure: Western blotting experiments were performed to evaluate the expression levels of specific proteins. Briefly, cells or tissues as indicated were solubilized by directly adding RIPA buffer (50 mM Tris HCl, 150 mM NaCl, 1.0% v/v, NP-40, 0.5% w/v, sodium deoxycholate, 1.0 mM ethylenediamine tetraacetic acid, EDTA, 0.1% w/v, sodium dodecyl sulphate, SDS, and 0.01% w/v sodium azide, pH of 7.4) containing protease (P8340; Sigma Aldrich, Sao Paulo, Brazil) and phosphatase (P5726, Sigma Aldrich, Sao Paulo, Brazil) inhibitors cocktails, followed by sonication with a micro-tip for 5 s. After 30 min of incubation on ice, samples were centrifuged for 30 min at 12,000× g. Proteins from supernatants (50 µg) were separated by 10% SDS-PAGE and transferred to nitrocellulose membranes for immunoblotting with mouse monoclonal anti-phospho extracellular signal-regulated kinase 1/2 (anti-pErk; Erk 1/2 phosphorylation at Thr202-Tyr204; 1:1000; Cell Signaling, Boston, MA, USA), and rabbit polyclonal anti-total extracellular signal-regulated kinase 1/2 (Erk; anti-total Erk 1/2, 1:1000; Cell Signaling, Boston, MA, USA) antibodies. Blots were also treated with rabbit anti-phospho Akt (S473) (anti-pAkt, 1:1000) and mouse polyclonal anti-total Akt (anti-Akt, 1:1000) (Cell Signaling, Boston, MA, USA) and anti-myogenin (1:1000, Abcam, UK). Protein normalization indicated was performed using rabbit polyclonal anti-glyceraldehyde 3-phosphate dehydrogenase (GAPDH; 1:2000; Proteimax Biotechnology, São Paulo, Brazil) antibodies or anti-β-actin mouse antiserum (1:2000; Sigma Aldrich, Sao Paulo, Brazil). Blots were incubated with horseradish peroxidase-conjugated secondary antibodies for 3 h at room temperature. Western blot bands were visualized with Super-Signal West Pico Chemiluminescent substrate (Thermo Scientific) using the ChemiDoc™ MP Imaging System (BioRad, Hercules, CA, USA), and quantified using ImageJ 1.49 software. All results are expressed as the means ± standard error of the mean (SEM). The statistical comparisons were performed using Student’s t-test or analysis of variance (ANOVA), followed by ad-hoc Tukey’s test (n = 7). Data were statistically analyzed with GraphPad Prism software (GraphPad Software Inc, San Diego, CA, USA).
Figure 5 Western blotting for ERK and AKT in epididymal adipose and tibial muscle tissues following ip administration of Ric4 to WT mice. Mice were treated ip with vehicle (Control) or Ric4 (600 µg/kg). Tissues were collected 30 min after the Ric4 administration and processed for Western blots as detailed in Section 2.5. The phosphorylation of either ERK or AKT in epididymal adipose tissue (A,B) and tibial muscle tissue (C,D) were analyzed using antibodies anti-pErk (A,C) or anti-pAkt (B,D). […]

Assay [2] deals with epididymal adipose tissue and tibial skeletal muscle of WT mice. The assay is described as follows: mRNA expression of energy metabolism genes in tissues after ip administration (qPCR). The settings on record: 600 µg/kg ip. Format: in vivo, mouse. As for the experimental part: Real-time PCR (qPCR) experiments were performed to evaluate the mRNA expression levels, at basal and under stimulus, for peroxisome proliferator activator receptor gamma (PPARγ), peroxisome proliferator activator receptor alpha (PPARa), cAMP responsive element binding protein 1 (Creb1), aldolase A, fructose-bisphosphate (ALDOA), cytochrome c oxidase subunit IV isoform 1 (Cox4i1), phosphoglycerate mutase 2 (PGAM2), troponin I, skeletal, fast 2 (TNNI2), […] (TNNT3), small muscle protein X-linked (SMPX), myosin, […] (MYH1), insulin-growth factor 1 (IGF1), Glucose transporter 4 (GLUT4), and lipoprotein lipase (LPL). Primers sequences are described in Supplementary Materials (Table S1). […] Quantitative PCRs were performed using the Prism 7900 sequence detection system (Applied Biosystems, Foster City, CA, USA) with 100 nM primer and 20 ng cDNA. The expression of mRNA targets was normalized by expression of gene glyceraldehyde 3-phosphate dehydrogenase (GAPDH) or hipoxantina-guanina fosforibosiltransferase (HPRT) and expressed as relative values using the 2 DDCt method. […]
Figure 6 Ric4 stimulated mRNA expression levels of genes related to energy metabolism. WT mice were treated with vehicle (Control) or Ric4 (600 ug/kg, ip) and gene expression was evaluated by qPCR. […]
(In qPCR the cycle at which signal appears reflects the starting amount.)

With “LASVSTVLTSKYR [Ric4, intracellular peptide derived from hemoglobin alpha subunit, last 13 C-terminal amino acids]”, in assay [1], the “Akt phosphorylation in epididymal adipose tissue” value is recorded as “increased”, the “Akt phosphorylation in tibial skeletal muscle” value is reported as “not Akt phosphorylation”, the “Erk phosphorylation in epididymal adipose tissue” value is listed as “increased” and the “Erk phosphorylation in tibial skeletal muscle” value was “increased”. Further, in assay [2], the “GLUT4 mRNA levels in epididymal adipose tissue” value is recorded as “increased” and the “expression levels of genes related to energy metabolism in epididymal adipose tissue (LPL, PPARγ, PPARa, GLUT4, IGF1)” value was “stimulated the expression levels”.
